Source: patent US10739304B2, “Organic transistor-based system for electrophysiological monitoring of cells and method for the monitoring of the cells” (UNIVERSITA DEGLI STUDI DI CAGLIARI, priority 2015, dated 2020)

Tested on: rat cardiomyocytes culture
Test: Spontaneous electrical (beating) activity of rat cardiomyocyte culture recorded with the organic transistor (OCMFET) system, pharmacological modulation
Format: cell-based
Conditions: 100 μM; for beating frequency modulation: spike-count on 4 min: rat cardiomyocytes culture (8 DIV) at 37° C., Verapamil added after Norepinephrine, statistics on 5 transistors, average and standard deviation, basal 129±4.6; for chemical tuning of the culture's spontaneous activity (drain current vs time): rat cardiomyocytes culture at 37° C., Norepinephrine first, then Verapamil
Excerpt: The system 100 was able to detect the occurrence of the signals (similarly to what MEA-based devices do), the beat rate and its rapid changing related to pharmacological modulations, obtained by applying both positive and negative chronotropic compounds (according to the method described in Simpson, P. Stimulation of hypertrophy of cultured neonatal rat heart cells through an alpha 1-adrenergic receptor and induction of beating through an alpha 1- and beta 1-adrenergic receptor interaction. Evidence for independent regulation of growth and beating. Circ. Res. 56, 884-894 (1985); Yonemochi, H., Saikawa, T., Takakura, T., Ito, S., Takaki, R. Effects of calcium antagonist on β-receptors of cultured cardiac myocytes isolated from neonatal rat ventricle. Circulation 81, 1401-1408 (1990)). In FIG. 13 an example of extracellular action potentials measured, with an organic transistor 10 is shown. Considering a p-type organic transistor and a first inverting stage of the readout electronics, the shape of the single signal shown in FIG. 13 is consistent with the expected current fluctuation caused by the ionic charge displacement in the early phase of the cardiac action potential. The drain current IDS fluctuation is driven by the fast movement of Na+ ions occurring at the very beginning of the intracellular action potential.
Systematic measurements by recording the spontaneous electrophysiological activity of rat cardiomyocytes (8 Days InVitro—DIV) by means of the system 100 (FIG. 14) have been performed.
All the measurements relative to the pharmacological modulation of the electrical activity were performed while maintaining the culture at constant temperature (37° C.) and the same reliable results were obtained in five recording devices simultaneously.

SMILES	beating frequency modulation: spike-count on 4 min	chemical tuning of the culture's spontaneous activity (drain current vs time)
NC[C@H](O)c1ccc(O)c(O)c1 [Norepinephrine]	280±28.6	accelerated
COc1ccc(CCN(C)CCCC(C#N)(c2ccc(OC)c(OC)c2)C(C)C)cc1OC (stereo not shown) [Verapamil]	15±1.9	suppressed
